The record followed here is patent US20080058264A1, “AMINO-ACID CONTAINING COMPOSITION FOR INHIBITING ACCUMULATION OF FAT” (AJINOMOTO CO. INC, priority 2006, published 2008).

The test system of series [1] is C57BL/6J male mice. In words: Reference Example: mice fed high-fat feed with 3.0% L-threonine for eight weeks. In kind it is in vivo. The method, then:
Twenty C57BL/6J male mice (eight-weeks old, available from CLEA Japan, Inc.) were fed with CRF-1 powder (available from Oriental Yeast Co., Ltd.) during one-week acclimation period. The mice were then subjected to an experiment at the beginning of nine-weeks old.
The weight of feed intake by the individual mouse was measured, and the amount of energy intake (i.e., kilocalories) was calculated according to the feed from the energy value corresponding to 1 g of each experimental feed. After the eight-weeks' experiment by feeding with the respective experimental diets, the mice were subjected to autopsy to determine their body weight, and the weight of fat tissue sincluding the peri-epididymal fat, peri-renal fat, and mesenteric fat.

In series [2] the test system is C57BL/6J male mice. In words: Experimental Example 1: mice fed high-fat feed with added amino acids for eight weeks. In kind it is in vivo. The note with it: compared with HF feed, 2.0% single amino acid or 1.0%+1.0% in high-fat feed; for body weight of mice at autopsy: FIG. 1; for weight of fat tissue of mice at autopsy (accumulation of body fat): FIG. 2. As to the method: Forty C57BL/6J male mice (eight-weeks old, available from CLEA Japan, Inc.) were fed with CRF-1 powder (available from Oriental Yeast Co., Ltd.) during one-week acclimation period. The mice were then subjected to an experiment at the beginning of nine-weeks old. […] The weight of feed intake was individually measured, and the amount of energy intake was calculated from the energy value corresponding to 1 g of each experimental feed. After the eight-weeks' experiment by feeding with the respective experimental diets, the mice were subjected to autopsy to determine their body weight, and total fat weight including the peri-epididymal fat, peri-renal fat, mesenteric fat, and subcutaneous fat around the femurs.

With `C[C@@H](O)[C@H](N)C(=O)O` [threonine, L-threonine], in the series with C57BL/6J male mice [1] (3.0% L-threonine, FIG. 15), the “amount of energy intake during the feeding period” value is “not decreased”. In addition, the “body weight of mice at autopsy” value in the series with C57BL/6J male mice [1] (compared with HF feed, 3.0% L-threonine (group 3T), FIG. 13) is listed as “decreased”. In addition, in the series with C57BL/6J male mice [1] (compared with HF feed, 3.0% L-threonine (group 3T), FIG. 14), the “weight of fat tissue at autopsy” value is on record as “decreased”. Moreover, in the series on C57BL/6J male mice [2], the “body weight of mice at autopsy” value was “not decreased” and the “weight of fat tissue of mice at autopsy (accumulation of body fat)” value is reported as “not decreased”.

Take `CC(C)C[C@H](N)C(=O)O` [leucine, L-leucine]: in the series with C57BL/6J male mice [2], the “body weight of mice at autopsy” value is listed as “not decreased” and the “weight of fat tissue of mice at autopsy (accumulation of body fat)” value is “not decreased”.
